Experimental data published in ChEMBL document CHEMBL5356952, “Design, synthesis, and biological evaluation of deuterated indolepropionic acid derivatives as novel long-acting pan PPARα/γ/δ agonists” (Bioorg Med Chem, 2023).

Experiments:
[1] = Metabolic stability in rat liver microsomes assessed as half life preincubated for 5 mins followed by NADPH addition and measured upto 60 mins by LC-MS analysis; format: ADME, Microsome; conditions: time < 65 min
[2] = molecular target: T1, Peroxisome proliferator-activated receptor alpha (Homo sapiens, UniProt Q07869); experiment: Agonist activity at PPARalpha (unknown origin)
T1 sequence (Q07869 whole entry): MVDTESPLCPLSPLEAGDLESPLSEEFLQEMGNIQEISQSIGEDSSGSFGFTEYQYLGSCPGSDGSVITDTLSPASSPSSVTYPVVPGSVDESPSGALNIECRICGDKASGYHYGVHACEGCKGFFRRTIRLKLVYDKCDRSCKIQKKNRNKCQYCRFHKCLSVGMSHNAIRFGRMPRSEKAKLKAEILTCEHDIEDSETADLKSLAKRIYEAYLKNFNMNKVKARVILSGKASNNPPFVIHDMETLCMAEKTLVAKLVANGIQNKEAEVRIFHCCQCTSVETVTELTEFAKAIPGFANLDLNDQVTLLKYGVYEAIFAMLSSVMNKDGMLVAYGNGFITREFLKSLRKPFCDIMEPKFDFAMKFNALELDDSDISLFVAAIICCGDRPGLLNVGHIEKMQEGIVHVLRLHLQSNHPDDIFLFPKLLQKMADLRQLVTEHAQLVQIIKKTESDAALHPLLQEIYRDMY

[3] = molecular target: T2, Peroxisome proliferator-activated receptor delta (Homo sapiens, UniProt Q03181); experiment: Agonist activity at PPARdelta (unknown origin)
T2 sequence (Q03181 whole entry): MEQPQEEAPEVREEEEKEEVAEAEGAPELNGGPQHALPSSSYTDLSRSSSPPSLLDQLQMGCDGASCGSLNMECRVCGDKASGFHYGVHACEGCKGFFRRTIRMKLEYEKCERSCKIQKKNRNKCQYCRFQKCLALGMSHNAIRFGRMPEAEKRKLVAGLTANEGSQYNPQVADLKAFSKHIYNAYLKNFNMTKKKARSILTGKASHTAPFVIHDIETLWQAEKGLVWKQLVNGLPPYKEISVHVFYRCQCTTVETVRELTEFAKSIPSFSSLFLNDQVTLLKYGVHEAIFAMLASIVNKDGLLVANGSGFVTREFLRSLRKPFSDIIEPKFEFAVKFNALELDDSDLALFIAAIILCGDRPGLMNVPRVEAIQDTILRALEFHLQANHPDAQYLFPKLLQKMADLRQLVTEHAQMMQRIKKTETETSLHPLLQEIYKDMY

[4] = molecular target: T3, Peroxisome proliferator-activated receptor gamma (Homo sapiens, UniProt P37231); experiment: Agonist activity at PPARgamma (unknown origin)
T3 sequence (P37231 whole entry): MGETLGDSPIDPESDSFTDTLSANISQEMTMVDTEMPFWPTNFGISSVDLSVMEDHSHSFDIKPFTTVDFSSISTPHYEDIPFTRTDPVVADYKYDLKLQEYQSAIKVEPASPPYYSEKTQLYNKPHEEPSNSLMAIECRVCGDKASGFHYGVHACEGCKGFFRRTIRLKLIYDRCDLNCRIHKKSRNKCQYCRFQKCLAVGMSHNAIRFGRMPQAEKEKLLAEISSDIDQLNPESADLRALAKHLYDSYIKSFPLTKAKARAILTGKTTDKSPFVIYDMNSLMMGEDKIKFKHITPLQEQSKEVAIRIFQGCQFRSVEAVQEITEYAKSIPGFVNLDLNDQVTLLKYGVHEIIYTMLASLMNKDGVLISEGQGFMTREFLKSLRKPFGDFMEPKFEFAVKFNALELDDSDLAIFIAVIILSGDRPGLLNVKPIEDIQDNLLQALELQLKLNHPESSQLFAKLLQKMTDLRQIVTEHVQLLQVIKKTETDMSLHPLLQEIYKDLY

[5] = Half life in rat; format: ADME; conditions: in vivo

Row | Compound | half-life [1] | EC50 [2] | EC50 [3] | EC50 [4] | half-life [5]
1 | [2H]C([2H])(Cc1cn(S(=O)(=O)c2ccc3c(c2)CCO3)c2ccc(OC)cc12)C(=O)O | 1.12 h | – | – | – | –
2 | [2H]C([2H])(Cc1cn(S(=O)(=O)c2ccc(OC)cc2)c2ccc(OC)cc12)C(=O)O | 1.16 h | 0.98 µM | 0.85 µM | – | –
3 | [2H]C([2H])(Cc1cn(S(=O)(=O)c2ccc(C3CC3)cc2)c2ccc(OC)cc12)C(=O)O | 1.06 h | – | – | – | –
4 | [2H]C([2H])(Cc1cn(S(=O)(=O)c2ccc(OC(F)(F)F)cc2)c2ccc(OC)cc12)C(=O)O | 1.23 h | 1.26 µM | – | 0.95 µM | –
5 | [2H]C([2H])(Cc1cn(S(=O)(=O)c2ccc(OC)cc2)c2ccc(C3CC3)cc12)C(=O)O | 1.14 h | 2.52 µM | 2.97 µM | – | –
6 | COc1ccc(S(=O)(=O)n2cc(CCC(=O)O)c3cc(OC)ccc32)cc1 [INDEGLITAZAR] | 0.775 h | 1.15 µM | 0.94 µM | – | 1.4 h
